For test [1], the system named is rabbit platelet rich plasma. Description: Effect on in vitro platelet aggregation. Conditions: Oryctolagus cuniculus, aggregator AA, read-out: Anti-platelet aggregation IC50, AA. It counts as cell-based, rabbit (male Japanese white).
Test [2] has as its system rabbit platelet rich plasma. Description: Effect on in vitro platelet aggregation. The note with it: Oryctolagus cuniculus, Platelet. The class given is cell-based, rabbit (male Japanese white). On the procedure:
5. Effect on in vitro platelet aggregation Arterial blood was drawn from the ear artery of male Japanese white rabbits. Platelet rich plasma (PRP) was prepared by centrifugation of 9 ml of blood mixed with 1 ml of 3.8% sodium citrate as anticoagulant. Platelet aggregation was measured optically according to Born's method. ADP (10 μM), collagen (37.5 μg/ml), platelet activating factor (PAF, 0.11 nM) and calcium ionophore A 23187 (1 μg/ml) were used as platelet aggregators. Test compounds were added 1 minute prior to the addition of aggregating agents.

Test [3] relates to Male ddY mice. The test is described as follows: Anti-hypoxia effect (brain protection in low-oxygen state after evacuation): survival time. It counts as in vivo, mouse (male ddY). Conditions: intraperitoneal, 180 mmHg. On the procedure:
2. Anti-hypoxia effect (i.e., […] protection in low-oxygen state after evacuation)
Male ddY m8mice weighing 22-30 g were used in groups each consisting of 7-10 animals. The mice were placed in a desiccator (capacity: ca. 1,000 ml) which was evacuated with a vacuum pump to an internal pressure of 180 mmHg after intraperitoneal administration of test compounds. The survival time, or the duration of time between the start of evacuation and the cessation of breathing, was measured, and this was compared with the value for a vehicle group. Any survival time longer than a period of 15 minutes after application of a hypoxia load was counted as 15 minutes.

In the next test the test system is peroxylipid formation. Description: Anti-lipidperoxidation effect (TBA assay of malondialdehyde in rat brain homogenate). The class given is biochemical, rat (male Wistar). The note with it: for Inhibition of peroxylipid formation: 10 μl (10^-4 M) test compound in 990 μl sample, 37° C., 30 minutes, pH 7.4; for anti-lipidperoxidation effects: rat brain homogenate. On the procedure:
3. Anti-lipidperoxidation effect
Male Wistar rats weighing 200-250 g were used. The brain of each rat was extracted after decapitation, homogenized with 50 mM of a phosphate buffer solution (PBS, pH 7.4) and centrifuged at 1,000 g for 15 minutes. The supernatant was stored frozen at -30° C. Before use, it was thawed under flowing water and diluted with PBS three-fold to prepare a live sample.
Two samples were prepared by adding 10 μl (10^-4 M) of a test compound in solution to 990 μl of the live sample. One sample was incubated at 37° C. for 30 minutes and reaction was quenched by addition of 0.2 ml of 35% aqueous perchloric acid. The other sample was immediately mixed with 35% perchloric acid without incubation. Each of the mixtures was centrifuged at 3,000 rpm for 15 minutes and 0.5 ml of the supernatant was subjected to TBA assay (Yagi et al., Anal. Biochem., 95, 351 (1979)) for determining the malondialdehyde (MDA) content (×10^-4 M) by subtracting the peroxylipid level for the unincubated mixture from that for the incubated mixture. The percent inhibition of peroxylipid formation was calculated by the following formula: [formula] where A is the MDA content of a treated sample and B is the value for a control sample that was not treated with any test compound.

For test [4], the system named is scopolamine amnesia mouse. Description: Anti-amnesia effect (scopolamine-induced retrograde amnesia), step-through passive avoidance. The class given is in vivo, mouse (male ddY). Conditions: ip, 24 h, significant prolongation of step-through latency, intraperitoneal, scopolamine 0.5 mg/kg s.c., read-out: Minimum effective amount. The procedure: 6a. Anti-amnesia effect (i.e., capability of preventing scopolamine-inducedretrograde amnesia)
Five-week old male ddY weighing 25-30 g were used in groups each consisting of 10 animals. Memory retention deficit induced by scopolamine was evaluated by two-compartment step-through passive avoidance task. […] The floor of the dark compartment was provided with a current-conducting grid.
The experimental method was as follows. A scopolamine amnesia mouse that had been given subcutaneous injection of 0.5 mg/kg of an aqueous solution of scopolamine borate 20 minutes before was placed in the light compartment and when its forefeet touched the grid floor of the dark compartment, a current of 0.6 mA was applied to give a foot shock to the mouse (acquired conation). Immediately thereafter, a selected test compound or a control (physiological saline solution) was administered intraperitoneally. Twenty-four hours later, the mouse was replaced in the light compartment and the step-through latency, or the time required for the mouse to move to the dark compartment, was measured for a period of up to 300 seconds (test conation). The minimum effective amount of the test compound that provided a significant prolongation of the step-through latency over the control was determined.

The test system of test [5] is Male ddY mice. The test is described as follows: Anti-cerebroischemic effect (brain protection after ischemia by decapitation): gasping time. It counts as in vivo, mouse (male ddY). Conditions: intraperitoneal, 30 min before decapitation. The procedure:
1. Anti-cerebroischemic effect (i.e., brain protection after ischemia by decapitation)
Male ddY mice weighing 22-30 g were used in groups each consisting of 6 animals. Test compounds were administered intraperitoneally to the mice which were decapitated 30 minutes after the administration. The gasping time, or the duration of time between the onset of panting after decapitation and its cessation, was measured, and this was compared with the gasping time for a control group which were given only a liquid vehicle.

Setting [6] is: aggregator ADP (10 μM), read-out: Anti-platelet aggregation IC50, ADP.
Setting [7] is: aggregator PAF (0.11 nM), read-out: Anti-platelet aggregation IC50, PAF.
Setting [8] is: aggregator calcium ionophore A 23187 (1 μg/ml), read-out: Anti-platelet aggregation IC50, A 23187.
The mark [9] stands for this setting: aggregator collagen (37.5 μg/ml), read-out: Anti-platelet aggregation IC50, Collagen.

The structures appear in SMILES notation. Values after ≈ are worked out from the molar mass of the structure shown. Like-named read-outs stand apart in the source and are kept apart here.

With `CN(C)CCCN1c2ccccc2Sc2ccc(Cl)cc21` [Chlorpromazine], the IC50 in test [1] worked out at 105 µg/mL (≈ 329 µM); in test [2] (setting [6]), 57 µg/mL (≈ 179 µM); in test [2] (setting [7]) it was 93 µg/mL (≈ 292 µM); in test [2] (setting [8]) it was 125 µg/mL (≈ 392 µM); in test [2] (setting [9]) it was 22 µg/mL (≈ 69 µM).
In the case of `CC(CON=C1c2ccccc2OC2(c3ccccc3)CC12)CN(C)C` (stereo not drawn) [Example 4, 3,4-Benzo-5-(3-dimethylamino-2-methylpropyl)-oxyimino-1-phenyl-2-oxabicyclo[4.1.0]heptane], the “prolongation of survival time” value in the test on Male ddY mice [3] (12.5 mg/kg) is “significantly prolonging the survival time”. Also, the “Inhibition of peroxylipid formation” value in the test with peroxylipid formation is reported as 56.0%.
Take `c1ccc(C23CC2C(=NOCCC24CCCN2CCC4)c2ccccc2O3)cc1` (stereo not drawn) [Example 5, 3,4-Benzo-5-(2-pyrrolizidin-8-ylethyl)oxyimino-1-phenyl-2-oxabicyclo[4.1.0]heptane]: the “prolongation of survival time” value in the test with Male ddY mice [3] (12.5 mg/kg) is “significantly prolonging the survival time”. Besides, in the test with peroxylipid formation, the “Inhibition of peroxylipid formation” value amounted to 96.5% and the “anti-lipidperoxidation effects” value is listed as “strong anti-lipidperoxidation effects”.
Take `COc1ccc2c(c1)OC1(c3ccccc3)CC1C2=NOCCN(C)C` (stereo not drawn) [Example 7, 3,4-(3-Methoxybenzo)-5-(2-dimethylaminoethyl)oxyimino-1-phenyl-2-oxabicyclo[4.1.0]heptane]: in test [4], the minimal effective dose worked out at 20 mg/kg. The “prolongation of gasping time” value in the test with Male ddY mice [5] (25 mg/kg) is reported as “significantly prolonging the gasping time”.
For `CN(C)CCCON=C1c2ccccc2OC2(c3cccs3)CC12` (stereo not drawn) [Example 11, 3,4-Benzo-5-(3-dimethylaminopropylo)xyimino-1-thienyl-2-oxabicyclo[4.1.0]heptane], the “prolongation of survival time” value with Male ddY mice [3] (12.5 mg/kg) is reported as “significantly prolonging the survival time”.
In the case of `CNCCCON=C1c2ccccc2OC2(c3ccccc3)CC12` (stereo not drawn) [Example 15, 3,4-Benzo-5-(3-methylaminopropyl)oxyimino-1-phenyl-2-oxabicyclo[4.1.0]heptane], in the test with Male ddY mice [3] (12.5 mg/kg), the “prolongation of survival time” value is on record as “significantly prolonging the survival time”. Also, in the test with peroxylipid formation, the “Inhibition of peroxylipid formation” value is listed as 85.7% and the “anti-lipidperoxidation effects” value was “strong anti-lipidperoxidation effects”.
For `CN(C)CCCCCON=C1c2ccccc2OC2(c3ccccc3)CC12` (stereo not drawn) [Example 21, 3,4-Benzo-5-(5-dimethylaminopentyl)oxyimino-1-phenyl-2-oxabicyclo[4.1.0]heptane], the minimal effective dose in test [4] stood at 25 mg/kg. The “prolongation of survival time” value with Male ddY mice [3] (12.5 mg/kg) is “significantly prolonging the survival time”. In addition, in the test on peroxylipid formation, the “Inhibition of peroxylipid formation” value was determined as 62.1%. The “prolongation of gasping time” value was “significant prolongation of the gasping time” in the test on Male ddY mice [5] (12.5 mg/kg) and “significantly prolonging the gasping time” with Male ddY mice [5] (25 mg/kg).
For the compound `CN(C)CCOC1c2ccccc2OC2(c3ccccc3)CC12` (stereo not drawn) [Example 23, 3,4-Benzo-5-(2-dimethylaminoethyl)oxy-1-phenyl-2-oxabicyclo[4.1.0]heptane], the minimal effective dose in test [4] was 50 mg/kg. For the same compound, the results for the “prolongation of gasping time” value in the test on Male ddY mice [5] (12.5 mg/kg) and with Male ddY mice [5] (25 mg/kg) were “significant prolongation of the gasping time” and “significantly prolonging the gasping time”, respectively.
With `COc1ccc2c(c1)OC1(c3ccccc3)CC1C2OCCN(C)C` (stereo not drawn) [Example 28, 3,4-(3-Methoxybenzo)-5-(2-dimethylaminoethyl)oxy-1-phenyl-2-oxabicyclo[4.1.0]heptane], the minimal effective dose in test [4] stood at 12.5 mg/kg. Moreover, the “Inhibition of peroxylipid formation” value in the test on peroxylipid formation was determined as 77.6%. In addition, the “prolongation of gasping time” value is “significant prolongation of the gasping time” in the test with Male ddY mice [5] (12.5 mg/kg) and “significantly prolonging the gasping time” with Male ddY mice [5] (25 mg/kg).
As to `CN(C)CCCCOC1c2ccccc2OC2(c3ccccc3)CC12` (stereo not drawn) [Example 30, 3,4-Benzo-5-(4-dimethylaminobutyl)oxy-1-phenyl-2-oxabicyclo[4.1.0]heptane], in test [4], the minimal effective dose stood at 12.5 mg/kg. Besides, the entries for the “prolongation of survival time” value in the test with Male ddY mice [3] (6.25 mg/kg or smaller) and in the test on Male ddY mice [3] (12.5 mg/kg) were “significant prolongation of the survival time” and “significantly prolonging the survival time”, respectively. Further, the “prolongation of gasping time” value in the test on Male ddY mice [5] (25 mg/kg) is listed as “significantly prolonging the gasping time”.
Take `CN(C)CCCCCCOC1c2ccccc2OC2(c3ccccc3)CC12` (stereo not drawn) [Example 31]: the entries for the “prolongation of survival time” value in the test on Male ddY mice [3] (6.25 mg/kg or smaller) and in the test with Male ddY mice [3] (12.5 mg/kg) were “significant prolongation of the survival time” and “significantly prolonging the survival time”, respectively.
With `NCCCCCCNS(=O)(=O)c1cccc2c(Cl)cccc12` [Example W-7], the half-inhibitory concentration (IC50) in test [1] is 11 µg/mL (≈ 32.3 µM); in test [2] (setting [6]), 18 µg/mL (≈ 52.8 µM); in test [2] (setting [7]) it was 27 µg/mL (≈ 79.2 µM); in test [2] (setting [8]), 19 µg/mL (≈ 55.7 µM); in test [2] (setting [9]) it was 11 µg/mL (≈ 32.3 µM).

For orientation: IC50 means the concentration that gives 50% inhibition.

The record behind these values is patent US4713453A, “Oxabicycloheptane derivatives” (Suntori Limited, priority 1986, dated 1987).
